Laboratory results published in patent US20110177002A1, “CYLIC POLYAMINES FOR BINDING PHOSPHATIDYLSERINE” (BAYER SCHERING PHARMA AKTIENGESELLSCHAFT, priority 2008, published 2011).

Key:
[1] = Zn^2+ complexation; cited from earlier work
[2] = test system: Jurkat cells induced with staurosporin; assay: Confocal microscopy on apoptosis induced Jurkat cells; format: cell-based; settings: 5 μM compound, 15 min at RT
Procedure: In order to verify the FACS data with visual data confocal microscopy was performed. Confocal microscopy was also performed on Jurkat cells and apoptosis was induced by incubating 10^6 cells/ml in 1 μM staurosporin for 4 h (Stepczynska A et al, Staurosporine and conventional anticancer drugs induce overlapping, yet distinct pathways of apoptosis and caspase activation Oncogene (2001) 20, 1193). The experiments were also carried out in TES-buffer. For compound binding 10^6 cells (either induced with staurosporin or non-induced) were incubated for 15 min at RT in 100 μl cold TES buffer with a final concentration of 5 μM compound, then the cells were fixed onto polylysine coated slides and shortly incubated with propidium iodine (PI).

[3] = test system: staurosporine treated Jurkat cells; assay: FACS flow cytometry, apoptosis detection on staurosporine treated Jurkat cells with propidium iodide discrimination; format: cell-based; settings: for labeling pattern in direct comparison with Annexin-V: apoptosis induced Jurkat cells, co-incubation, FIG. 10
Excerpt: Flow cytometry is a technology for counting and examining cells which pass in a flow of single cells through a laser beam. The laser light scatter provides information about cell features. The forward scatter (FSC) depends basically on the size of the cell, whereas the side scatter (SSC) is used to measure the granularity of the cell. Furthermore, if the cells carry fluorescence dyes, the respective fluorescence signal can be detected.
Flow cytometry is a widely applied technique in cell biology. Especially in the research of cell death mechanisms it is a standard procedure to count and differentiate between apoptotic, necrotic and healthy cells. For the detection of apoptosis the protein Annexin V is applied which is usually attached to a green fluorescence dye. Because Annexin V can also bind to necrotic cells, the red fluorescent nuclear stain propidium iodide is simultaneously applied as a necrosis marker.
The resulting fluorescence diagrams that are obtained from a flow cytometry procedure with Annexin V and propidium iodide are shown below. The detection channel for green fluorescence is termed FL-I (FIG. 4), the one for red fluorescence FL-III (FIG. 4). The plot of cell number (counts) versus FL-I intensity is called histogram. The fluorescence signal of the sample is always accompanied by a second signal at low intensities (left in the histogram) which is background fluorescence. By plotting the red fluorescence versus the green fluorescence (FL-I/FL-III-plot) a diagram is obtained in which the cells can be divided into red, green and red+green fluorescent cells. After gating the signals into four quadrant regions (Q1-Q4) (FIG. 4), the percentages of the differently stained cells is indicated in the diagram.
FACS measurements were performed with a DAKO Galaxy Flow Cytometry System using the following experimental setup: Jurkat-cells were grown to a density of about 1*10^6 cells/ml. Apoptosis was induced by adding 1 μmol/l staurosporine (Stepczynska A et al, Staurosporine and conventional anticancer drugs induce overlapping, yet distinct pathways of apoptosis and caspase activation, Oncogene (2001) 20, 1193). After incubation for 4 h at 37° C., the cells were washed with cold PBS-buffer (140 mmol/l NaCl, 10 mmol/l KCl, 6.4 mmol/l Na2HPO4, 2 mmol/l KH2PO4) and resuspended in cold TES-buffer (5 mmol/l TES, 145 mmol/l NaCl). 10^6 cells in 100 μl buffer with 1 μl of a 0.5 mmol/l aqueous solution of complex 1 were incubated for 15 minutes at 37° C. Subsequently, cells were washed twice with 500 μl TES-buffer and the cells were resuspended in 400 μl TES-buffer. 100 μl of the probe were diluted with 900 μl of buffer and measured immediately. To discriminate against necroses, 10 μl propidiumiodide solution (250 μg/ml) were added directly before the measurement.

[4] = test system: cells which expose phosphatidylserine; settings: cited from earlier work
[5] = test system: adenocarcinoma (Prostata) R3327-ATI; assay: PET imaging in radiation tumor model; format: in vivo, Male Copenhagen rats; settings: day 6 and day 10 after 50 Gy radiation, i.v.
Excerpt: The PET images were obtained using a radiation model. Male Copenhagen rats with approx. 180 g body weight were transplanted with the hormone independent adenocarcinoma (Prostata) R3327-ATI on the left and right upper leg. The left tumor, as it reached a size of 3.5 cm^3 was radiated by linear particle accelerator with a single dosis of 50 Gy, whereas the right tumor served as control.
One day prior to the radiation as well as 6 and 10 d after radiation, the 18F-compound 19 (15-25 MBq in ca. 200 μL PBS) was injected i.v. and PET-aquisition with 1 h dynamic PET measurements were performed.

apoptotic liver = assay: Biodistribution after induction of hepatic apoptosis with Cycloheximid; format: in vivo, male Balb/c mice; settings: i.v., 3.5 h after induction of hepatic apoptosis
Procedure: The biodistribution was performed in male Balb/c mice (6-8 weeks, body weight approx. 20 g). Hepatic apoptosis were induced by intraperitoneal injection of Cycloheximid ([…] in 500 μL PBS) (J. F. Tait, C. Smith, Z. Levashova, B. Patel, F. G. Blankenberg, J. Vanderheyden, J. Nucl. Med. 2006, 47, 1546). 1.5 h and 3.5 h after induction of hepatic apoptosis the 18F-labeled compound was injected i.v. (1-2 MBq in 100 μL PBS). The organ distribution was done after 30 min, 1 h, 2 h and 3 h. The amount of 18F-compound was determined by gamma counter.

## c1ccc(CNCc2ccccn2)nc1 [DPA, 2,2-dipicolylamine]
[1]
  stability constant: 10^5 (mol/l)^−1

## Anx V: phosphatidylserine-binding protein, fluorescent dye labeled, standard apoptosis sensor
[2]
  uptake / labeling of cells in confocal microscopy: green membrane staining
[3]
  labeling pattern in direct comparison with Annexin-V: labels apoptotic cells in Q1 and Q2
[3]; staurosporine treated Jurkat cells, green fluorescence only
  % apoptosis (green): 22%
[3]; staurosporine treated Jurkat cells, propidium iodide red only
  % necrosis (PI) (red): 18%
[3]; staurosporine treated Jurkat cells, red + green
  % necrosis/ late apoptosis (red + green): 25%
[4]
  Kd: < 0.1 nM

## O=C(NCCOCCOCCOc1cc(COc2cc(CN3CCNCCNCCNCC3)cc(CN3CCNCCNCCNCC3)c2)cc(COc2cc(CN3CCNCCNCCNCC3)cc(CN3CCNCCNCCNCC3)c2)c1)c1ccc(-c2c3ccc(=O)cc-3oc3cc(O)ccc23)c(C(=O)O)c1 [compound we]
[3]; induced apoptotic Jurkat cells, FIG. 11
  median fluorescence intensity: 130
[3]; with versus without Zn^2+
  effect of Zn^2+ complexation on binding: same effect

## [18F]CCOc1cc(CN2CCNCCNCCNCC2)cc(CN2CCNCCNCCNCC2)c1 [compound 19]
[5]
  accumulation in irradiated tumor in comparison to the control tumor (PET): increase in accumulation
Apoptotic liver
  time the liver signal was stable: more than 3 h
Apoptotic liver; as early as 30 min after injection
  accumulation in the apoptotic liver: accumulation in the apoptotic liver

## CCN(CC)c1ccc2c(-c3ccc(NC(=S)NCCOCCOCCOc4cc(CN5CCNCCNCCNCC5)cc(CN5CCNCCNCCNCC5)c4)cc3C(=O)O)c3ccc(=[N+](CC)CC)cc-3oc2c1 [compound AB]
[2]
  uptake / labeling of cells in confocal microscopy: labeling of apoptotic and necrotic cells
[3]
  labeling pattern in direct comparison with Annexin-V: labeling apoptotic cells in Q2 and necrotic cells in Q4
